Source: PMC7747594, “Protease-activated receptor-2 ligands reveal orthosteric and allosteric mechanisms of receptor inhibition” (Communications Biology, 2020)

Molecular target: T1, beta-tryptase (uniprot P20231) (Homo sapiens, UniProt P20231)
T1 construct: made in house; host or cells: Pichia pastoris
Test: Tryptase enzyme activity assay
Format: biochemical
Details: 10 µM, n=1
Method: Tryptase Enzyme Activity Assay. The tryptase assay was carried out using beta-tryptase (uniprot P20231) produced in Pichia pastoris and using Tos-Gly-Pro-Lys-pNA as substrate (25 mM stock in ethanol) in 100 mM Tris pH 8.0, 100 mM NaCl, 10% glycerol, 0.5 mg mL-1 BSA, 0.1% DDM. Substrate (250 µM) was pre-incubated with test compound (10 µM) in assay buffer (200 ul) in clear bottom 96 well Greiner plates at room temperature. The re action was started by the addition of tryptase to a final concentration of 4.7 nM. Co nversion was recorded in a plate reader by monitoring the increase of absorption at λ = 405 nm over time. Activity was determined by linear fit of initial rate.

T1 sequence (P20231 31-275): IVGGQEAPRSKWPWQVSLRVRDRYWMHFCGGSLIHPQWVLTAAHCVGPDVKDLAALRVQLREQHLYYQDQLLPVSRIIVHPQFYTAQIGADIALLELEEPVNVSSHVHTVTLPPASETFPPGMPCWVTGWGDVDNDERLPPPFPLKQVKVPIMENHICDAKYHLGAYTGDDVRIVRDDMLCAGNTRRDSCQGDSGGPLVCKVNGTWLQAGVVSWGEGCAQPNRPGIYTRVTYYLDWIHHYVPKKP

**Q.** For `N=C(N)Nc1ccc(C(=O)Oc2ccc([N+](=O)[O-])cc2)cc1` [4-nitrophenyl-4-guanidinobenzoate, reference compound], which “inhibition of tryptase activity” value is on record?
**A.** completely
